Literature values as cited in US5922837A, “Antiprotozoal cyclic tetrapeptides” (Merck & Co., Inc., priority 1997, dated 1999).

Tests used:
[1] = system: v-sis-transformed NIH3T3 cells
[2] = system: mammalian histone deacetylase
[3] = system: partially purified yeast histone deacetylase
[4] = system: murine erythroleukemia cells
[5] = system: trichomonal
[6] = system: sis-transformed fibroblast cells

| Molecule | morphological reversion [1] | type of inhibition of mammalian histone deacetylase [2] | inhibition of partially purified yeast histone deacetylase [3] | cell differentiating activity [4] | anti-trichomonal activity [5] | induction of phenotypic reversion [6] |
| --- | --- | --- | --- | --- | --- | --- |
| trapoxin A | induces morphological reversion | irreversible | – | – | – | – |
| CC(/C=C/C(=O)NO)=C\[C@@H](C)C(=O)c1ccc(N(C)C)cc1 [trichostatin A] | – | reversible | inhibit | cell differentiating activity | anti-trichomonal activity | ability to induce phenotypic reversion |
